Test [1] has as its system voltage-gated sodium (Nav) channels in rat CA1 hippocampal neurons. As to conditions: cited from earlier work.
The subject of test [2] is TTX-resistant Nav current in rat DRG neurons. Type of test: cell-based.
Test [3] has as its target T1, human Nav1.7 channels (Homo sapiens, UniProt Q15858). Briefly: State-dependent inhibition of sodium currents, automated patch-clamp. Type of test: cell-based.
Test [4] addresses T1, human Nav1.7 channels. Briefly: Steady-state inactivation. Type of test: cell-based.
For test [5], the target named is T1, human Nav1.7 channels. Briefly: Activation / peak conductance protocol, automated patch-clamp. The test is classed as cell-based. For orientation: Patch clamp records ionic current or voltage across a cell membrane.
Test [6] has as its system TTX-sensitive Nav channels. As to conditions: read-out: IC50 of TTX-sensitive channels; cited from earlier work.
The subject of test [7] is Nav channels. Briefly: CBD inhibition of Nav channels. The test is classed as cell-based. The settings on record: Table 1, from literature CBD values.
The subject of test [8] is Nav channels. As to conditions: ref Ghovanloo, Shuart, et al. (2018), cited from earlier work.

Values joined by “and” are separate entries in the source; they are usually repeats but may differ in a detail not shown here. Equal entries are not always repeated. Where two headings read alike, the source gives them in different places. Marks after values point to notes of the source that are not given here.

T1 sequence (Q15858 whole entry): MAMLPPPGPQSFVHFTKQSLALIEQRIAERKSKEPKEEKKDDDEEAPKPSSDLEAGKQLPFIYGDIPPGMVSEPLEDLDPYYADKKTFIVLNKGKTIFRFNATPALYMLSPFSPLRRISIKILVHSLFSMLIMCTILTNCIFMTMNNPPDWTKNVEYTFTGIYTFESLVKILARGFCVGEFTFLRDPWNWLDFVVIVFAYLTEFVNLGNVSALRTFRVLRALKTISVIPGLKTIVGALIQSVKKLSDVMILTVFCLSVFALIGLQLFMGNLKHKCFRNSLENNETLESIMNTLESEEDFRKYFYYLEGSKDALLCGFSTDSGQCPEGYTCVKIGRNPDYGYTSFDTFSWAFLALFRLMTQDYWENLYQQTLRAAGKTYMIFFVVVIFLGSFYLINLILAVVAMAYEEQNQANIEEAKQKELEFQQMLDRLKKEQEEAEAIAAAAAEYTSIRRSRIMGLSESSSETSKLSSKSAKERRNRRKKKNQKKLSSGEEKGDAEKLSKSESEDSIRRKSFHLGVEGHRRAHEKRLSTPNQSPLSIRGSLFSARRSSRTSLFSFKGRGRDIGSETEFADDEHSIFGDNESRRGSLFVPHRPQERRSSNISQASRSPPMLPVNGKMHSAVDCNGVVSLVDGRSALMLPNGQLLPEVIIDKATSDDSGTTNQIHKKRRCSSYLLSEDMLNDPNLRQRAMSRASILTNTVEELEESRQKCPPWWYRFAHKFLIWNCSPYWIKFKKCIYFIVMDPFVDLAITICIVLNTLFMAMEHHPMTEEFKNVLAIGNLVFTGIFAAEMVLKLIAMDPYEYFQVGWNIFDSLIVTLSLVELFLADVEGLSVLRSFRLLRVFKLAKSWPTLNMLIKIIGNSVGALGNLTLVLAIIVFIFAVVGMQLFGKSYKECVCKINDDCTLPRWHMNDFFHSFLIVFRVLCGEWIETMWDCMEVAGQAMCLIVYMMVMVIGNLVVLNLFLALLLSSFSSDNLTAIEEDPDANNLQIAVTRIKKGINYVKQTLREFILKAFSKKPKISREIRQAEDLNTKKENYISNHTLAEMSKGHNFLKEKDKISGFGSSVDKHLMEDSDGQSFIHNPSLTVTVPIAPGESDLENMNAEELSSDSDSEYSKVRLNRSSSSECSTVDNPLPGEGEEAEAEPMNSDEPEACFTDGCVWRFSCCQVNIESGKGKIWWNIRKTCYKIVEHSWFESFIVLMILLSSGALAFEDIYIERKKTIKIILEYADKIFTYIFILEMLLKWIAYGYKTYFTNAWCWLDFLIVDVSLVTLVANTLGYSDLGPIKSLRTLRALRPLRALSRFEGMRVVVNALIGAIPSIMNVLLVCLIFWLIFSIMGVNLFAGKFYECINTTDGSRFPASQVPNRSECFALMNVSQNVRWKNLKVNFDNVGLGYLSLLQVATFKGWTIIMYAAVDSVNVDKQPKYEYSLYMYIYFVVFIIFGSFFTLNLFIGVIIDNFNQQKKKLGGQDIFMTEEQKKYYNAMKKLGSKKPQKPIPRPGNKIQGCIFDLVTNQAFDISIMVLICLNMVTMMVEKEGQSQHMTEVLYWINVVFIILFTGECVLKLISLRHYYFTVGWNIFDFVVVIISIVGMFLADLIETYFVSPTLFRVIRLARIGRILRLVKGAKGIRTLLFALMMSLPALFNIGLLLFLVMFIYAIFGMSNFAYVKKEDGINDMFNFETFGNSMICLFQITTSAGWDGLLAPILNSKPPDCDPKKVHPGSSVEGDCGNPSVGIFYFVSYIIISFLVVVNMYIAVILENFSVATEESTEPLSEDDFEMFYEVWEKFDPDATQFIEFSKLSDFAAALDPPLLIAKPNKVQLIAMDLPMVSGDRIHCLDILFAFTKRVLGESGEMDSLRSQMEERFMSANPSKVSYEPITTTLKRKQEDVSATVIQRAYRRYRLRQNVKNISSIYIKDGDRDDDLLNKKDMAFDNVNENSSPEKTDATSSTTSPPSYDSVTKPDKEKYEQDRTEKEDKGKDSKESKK
T1 sequence (Q07699 19-218 partner): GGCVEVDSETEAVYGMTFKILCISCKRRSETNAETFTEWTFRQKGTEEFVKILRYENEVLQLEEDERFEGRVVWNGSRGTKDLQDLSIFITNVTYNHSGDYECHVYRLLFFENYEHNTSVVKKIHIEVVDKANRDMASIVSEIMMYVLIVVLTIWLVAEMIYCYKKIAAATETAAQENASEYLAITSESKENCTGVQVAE

Usually Hill slope stands for a measure of the steepness of the concentration-response curve. Usually Ki stands for a measure of affinity in units of concentration, obtained from inhibition or displacement. Low values mean higher affinity, high ones lower affinity. As usually defined, the IC50 is the concentration that gives 50% inhibition. A word on the inhibition: it is how much of the control response was suppressed. For `CCCCCc1cc(O)c(C/C=C(\C)CCC=C(C)C)c(O)c1` [CBG, cannabigerol], the “Effect on Nav current density and action potential frequency” value in test [1] was “decreases current density”. In addition, in test [2], the “Inhibition of TTX-resistant current” value is ~ 50%. Moreover, at human Nav1.7 channels [3], the “Concentration/fold state dependence (ratio)” value is given as 2; the “Fold less potent than CBD in inhibiting Nav channels” value is recorded as “about 2 fold”; the Hill slope is 1.2 ± 0.3 and 2.3 ± 0.5 and 1.6 ± 0.4; the “Hill slopes (range across holding potentials)” value is recorded as 1.2–2.3. Besides, on human Nav1.7 channels [3], the Ki lay in the range of 2 to 20 µM; the “Nav channels prevented from opening” value is ~ 30%; the State dependence is reported as ~10; the “State dependence (inactivated vs resting state potency)” value is ~ 10 fold and ~ 11 fold. Moreover, the “average Hill-slope” value at human Nav1.7 channels [3] is recorded as ~ 2. On human Nav1.7 channels [3] (IC50 (range across holding potentials), holding potentials −110 to −90 mV), this molecule yielded an IC50 of 4.6 to 18.8 µM. The 50% inhibitory concentration (IC50) on human Nav1.7 channels [3] (IC50, holding potential −90 mV, pulse 180 (3 min), mean ± SEM) is 4.6 ± 1.1 µM. In addition, at human Nav1.7 channels [3] (IC50, holding potential −100 mV, pulse 180 (3 min), mean ± SEM), the IC50 came out at 9.3 ± 1 µM. Also, the IC50 against human Nav1.7 channels [3] (IC50, holding potential −110 mV, pulse 180 (3 min), mean ± SEM) stood at 18.8 ± 2.9 µM. For the same molecule, on human Nav1.7 channels [4], the “Hyperpolarization of voltage dependence of SSI” value is on record as ~ 12 mV, the “Percentage shift of inactivation V1/2 relative to vehicle” value is “about 25%” and the “Rate time constant of open-state inactivation vs vehicle” value was “did not differ significantly”. Besides, the IC50 on human Nav1.7 channels [4] (IC50 for V1/2 (inactivation shift), Hill fit of normalized data, estimated) was ~13.2 µM. For the same molecule, the inhibition at 15 µM at human Nav1.7 channels [4] (read-out: Inhibition of current at the test pulse) is ~90%. Further, on human Nav1.7 channels [5], the IC50 was ~3.5 µM, the “Reduction in sodium current density” value is given as ~ 90%, the V1/2 of activation was −46.4 ± 5.6 mV and the “Vehicle Gmax left” value is recorded as ~ 10%. At human Nav1.7 channels [5], this molecule returned a slope of activation of 5.2 ± 2.2.

Regarding `NC1=N[C@H](O)[C@H]2[C@H]3O[C@]4(O)O[C@@H]([C@@H](O)[C@@]2(N1)[C@@H]4O)[C@]3(O)CO` [TTX, tetrodotoxin], in test [6], the IC50 is 0.01 to 0.03 µM.

As for `C=C(C)[C@@H]1CCC(C)=C[C@H]1c1c(O)cc(CCCCC)cc1O` [CBD, cannabidiol], in the test on Nav channels [7], the “Concentration/fold state dependence (ratio)” value was found to be 1.1. In addition, the State dependence was ~10^a in the test on Nav channels [8] (Table 1) and ~ 10 fold in the test on Nav channels [8]. Besides, in the test with Nav channels [8] (read-out: IC50 on Nav channels, Table 1), the IC50 was 1 to 12 µM.

The values are drawn from article PMC13012276 (British journal of pharmacology, 2022).
